Experimental data as given in patent publication US20230265116A1, “DEGRADATION OF (EGFR) BY CONJUGATION OF EGFR INHIBITORS WITH E3 LIGASE LIGAND AND METHODS OF USE” (BEIGENE, LTD., priority 2020, published 2023).

Columns and labels:
[1] = tested on: EGFR Del19/T790M/C797S (BaF3-DTC cells); assay: EGFR degradation HTRF assay, BaF3-DTC cells; type: cell-based; conditions: 16h treatment; for DTC Dmax (%): maximum percentage of degradation; for DC50: read-out: DTC DC50
Summary of the method: (§1)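 Cells treated 16 h at 37 °C, 5% CO2 in medium with 0.2% DMSO; top final concentration 10 uM, 5-fold dilution, 8 doses. Lysates read by HTRF (665/620 nm); degradation % versus DMSO high control, DC50 from four-parameter fit, Dmax as maximal degradation.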

[2] = target: T1, EGFR L858R/T790M/C797S (BaF3-LTC cells) (Homo sapiens, UniProt P00533, C797S/L858R/T790M); assay: EGFR degradation HTRF assay, BaF3-LTC cells; type: cell-based; conditions: BaF3-LTC, 16h treatment; for Dmax: maximum percentage of degradation, read-out: LTC Dmax (%); for DC50: read-out: LTC DC50
T1 construct: expressed in transfected cells; host or cells: BaF3
Summary of the method: as §1

T1 sequence (P00533 25-1210 T790M/C797S/L858R): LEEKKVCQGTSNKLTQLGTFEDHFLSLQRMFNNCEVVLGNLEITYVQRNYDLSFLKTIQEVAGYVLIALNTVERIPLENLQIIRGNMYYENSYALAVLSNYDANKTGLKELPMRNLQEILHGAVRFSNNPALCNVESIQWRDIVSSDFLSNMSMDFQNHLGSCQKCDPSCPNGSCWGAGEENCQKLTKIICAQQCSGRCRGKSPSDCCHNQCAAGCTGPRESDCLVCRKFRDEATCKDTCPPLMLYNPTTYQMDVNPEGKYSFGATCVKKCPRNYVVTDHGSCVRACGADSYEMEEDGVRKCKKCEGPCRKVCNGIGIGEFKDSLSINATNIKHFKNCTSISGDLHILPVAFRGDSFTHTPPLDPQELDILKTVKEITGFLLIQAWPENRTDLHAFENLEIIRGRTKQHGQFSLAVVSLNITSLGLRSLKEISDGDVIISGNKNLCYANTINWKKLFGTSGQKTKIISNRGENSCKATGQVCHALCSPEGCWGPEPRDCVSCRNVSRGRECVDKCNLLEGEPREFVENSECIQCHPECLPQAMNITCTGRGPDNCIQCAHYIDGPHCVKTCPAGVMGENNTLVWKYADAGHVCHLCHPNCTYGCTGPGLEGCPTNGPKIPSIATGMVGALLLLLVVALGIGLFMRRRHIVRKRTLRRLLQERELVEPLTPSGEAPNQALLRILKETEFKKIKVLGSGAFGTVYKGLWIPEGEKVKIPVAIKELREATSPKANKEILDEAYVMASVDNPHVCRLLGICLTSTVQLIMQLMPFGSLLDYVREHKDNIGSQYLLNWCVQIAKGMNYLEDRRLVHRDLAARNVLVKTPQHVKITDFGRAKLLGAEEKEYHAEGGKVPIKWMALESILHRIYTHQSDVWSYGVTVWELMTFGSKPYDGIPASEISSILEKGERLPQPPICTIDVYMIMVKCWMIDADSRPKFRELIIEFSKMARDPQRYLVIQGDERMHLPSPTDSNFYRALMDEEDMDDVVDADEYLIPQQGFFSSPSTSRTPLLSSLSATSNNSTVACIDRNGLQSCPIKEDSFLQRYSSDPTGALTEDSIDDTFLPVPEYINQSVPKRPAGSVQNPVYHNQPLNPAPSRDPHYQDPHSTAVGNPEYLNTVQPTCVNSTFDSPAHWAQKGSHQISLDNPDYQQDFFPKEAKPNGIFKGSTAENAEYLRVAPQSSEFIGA

SMILES | DTC Dmax (%) [1] | DC50 [1] | Dmax [2] | DC50 [2]
CCc1cc(Nc2ncc(Br)c(Nc3ccc4nccnc4c3P(C)(C)=O)n2)c(OC)cc1N1CCC(N2CCN(CCc3cc(F)c(C4CCC(=O)NC4=O)cc3F)CC2)CC1 (stereo not drawn) [Example 233, 3-(4-(2-(4-(1-(4-((5-bromo-4-((5-(dimethylphosphoryl)quinoxalin-6-yl)amino)pyrimidin-2-yl)amino)-2-ethyl-5-methoxyphenyl)piperidin-4-yl)piperazin-1-yl)ethyl)-2,5-difluorophenyl)piperidine-2,6-dione] | 86.57% | 13.1 nM | 80.6% | 35.3 nM
CCc1cc(Nc2ncc(Br)c(Nc3ccc4nccnc4c3P(C)(C)=O)n2)c(OC)cc1N1CCC(N2CCN(C[C@@H]3CCN(c4ccc5c(c4)CN(C4CCC(=O)NC4=O)C5=O)C3)CC2)CC1 (stereo partly drawn) [Example 234, 3-(5-((S)-3-((4-(1-(4-((5-bromo-4-((5-(dimethylphosphoryl)quinoxalin-6-yl)amino)pyrimidin-2-yl)amino)-2-ethyl-5-methoxyphenyl)piperidin-4-yl)piperazin-1-yl)methyl)pyrrolidin-1-yl)-1-oxoisoindolin-2-yl)piperidine-2,6-dione] | 90.55% | 4.19 nM | 87.8% | 15.8 nM
CCc1cc(Nc2ncc(Br)c(Nc3ccc4nccnc4c3P(C)(C)=O)n2)c(OC)cc1N1CCC(N2CCN(C[C@@H]3CCN(c4ccc5c(c4)C(=O)N(C4CCC(=O)NC4=O)C5=O)C3)CC2)CC1 (stereo partly drawn) [Example 235, 5-((S)-3-((4-(1-(4-((5-bromo-4-((5-(dimethylphosphoryl)quinoxalin-6-yl)amino)pyrimidin-2-yl)amino)-2-ethyl-5-methoxyphenyl)piperidin-4-yl)piperazin-1-yl)methyl)pyrrolidin-1-yl)-2-(2,6-dioxopiperidin-3-yl)isoindoline-1,3-dione] | 81.09% | 17.5 nM | 78% | 30.1 nM
CCc1cc(Nc2ncc(Br)c(Nc3ccc4nccnc4c3P(C)(C)=O)n2)c(OC)cc1N1CCC(N2CCN(C(=O)[C@H]3C[C@H](N(C)c4ccc5c(c4)C(=O)N(C4CCC(=O)NC4=O)C5=O)C3)CC2)CC1 (stereo partly drawn) [Example 236, 5-(((1r,3r)-3-(4-(1-(4-((5-bromo-4-((5-(dimethylphosphoryl)quinoxalin-6-yl)amino)pyrimidin-2-yl)amino)-2-ethyl-5-methoxyphenyl)piperidin-4-yl)piperazine-1-carbonyl)cyclobutyl)(methyl)amino)-2-(2,6-dioxopiperidin-3-yl)isoindoline-1,3-dione] | 90.89% | 6.3 nM | 83% | 33.5 nM
CCc1cc(Nc2ncc(Br)c(Nc3ccc4nccnc4c3P(C)(C)=O)n2)c(OC)cc1N1CCC(N2CCN(C[C@H]3CCN(c4ccc5c(c4)CN(C4CCC(=O)NC4=O)C5=O)C3)CC2)CC1 (stereo partly drawn) [Example 237, 3-(5-((R)-3-((4-(1-(4-((5-bromo-4-((5-(dimethylphosphoryl)quinoxalin-6-yl)amino)pyrimidin-2-yl)amino)-2-ethyl-5-methoxyphenyl)piperidin-4-yl)piperazin-1-yl)methyl)pyrrolidin-1-yl)-1-oxoisoindolin-2-yl)piperidine-2,6-dione] | 92.67% | 6.15 nM | 92.5% | 9.47 nM
CCc1cc(Nc2ncc(Br)c(Nc3ccc4nccnc4c3P(C)(C)=O)n2)c(OC)cc1N1CCC(N2CCN(CCc3cc(F)c(C4CCC(=O)NC4=O)c(Cl)c3)CC2)CC1 (stereo not drawn) [Example 238, 3-(4-(2-(4-(1-(4-((5-bromo-4-((5-(dimethylphosphoryl)quinoxalin-6-yl)amino)pyrimidin-2-yl)amino)-2-ethyl-5-methoxyphenyl)piperidin-4-yl)piperazin-1-yl)ethyl)-2-chloro-6-fluorophenyl)piperidine-2,6-dione] | 93.21% | 9.2 nM | 88.3% | 39.3 nM
CCc1cc(Nc2ncc(Br)c(Nc3ccc4nccnc4c3P(C)(C)=O)n2)c(OC)cc1N1CCC(N2CCN(CC3CN(c4ccc5c(c4)C(=O)N(C4CCC(=O)NC4=O)C5)C3)CC2)CC1 (stereo not drawn) [Example 239, 3-(6-(3-((4-(1-(4-((5-bromo-4-((5-(dimethylphosphoryl)quinoxalin-6-yl)amino)pyrimidin-2-yl)amino)-2-ethyl-5-methoxyphenyl)piperidin-4-yl)piperazin-1-yl)methyl)azetidin-1-yl)-1-oxoisoindolin-2-yl)piperidine-2,6-dione] | 88.8% | 3.34 nM | 87% | 12.3 nM
CCc1cc(Nc2ncc(Br)c(Nc3ccc4nccnc4c3P(C)(C)=O)n2)c(OC)cc1N1CCC(N2CCN(C(=O)[C@H]3CCN(c4ccc5c(c4)CN(C4CCC(=O)NC4=O)C5=O)C3)CC2)CC1 (stereo partly drawn) [Example 240, 3-(5-((S)-3-(4-(1-(4-((5-bromo-4-((5-(dimethylphosphoryl)quinoxalin-6-yl)amino)pyrimidin-2-yl)amino)-2-ethyl-5-methoxyphenyl)piperidin-4-yl)piperazine-1-carbonyl)pyrrolidin-1-yl)-1-oxoisoindolin-2-yl)piperidine-2,6-dione] | 89.2% | 3.83 nM | 87.7% | 5.95 nM
CCc1cc(Nc2ncc(Br)c(Nc3ccc4nccnc4c3P(C)(C)=O)n2)c(OC)cc1N1CCC(N2CCN(C(=O)[C@@H]3CCN(c4ccc5c(c4)CN(C4CCC(=O)NC4=O)C5=O)C3)CC2)CC1 (stereo partly drawn) [Example 241, 3-(5-((R)-3-(4-(1-(4-((5-bromo-4-((5-(dimethylphosphoryl)quinoxalin-6-yl)amino)pyrimidin-2-yl)amino)-2-ethyl-5-methoxyphenyl)piperidin-4-yl)piperazine-1-carbonyl)pyrrolidin-1-yl)-1-oxoisoindolin-2-yl)piperidine-2,6-dione] | 89.74% | 3.26 nM | 87.6% | 4.6 nM
CCc1cc(Nc2ncc(Br)c(Nc3ccc4nccnc4c3P(C)(C)=O)n2)c(OC)cc1N1CCC(N2CCN(CC3CCN(c4ccc5c(c4)CN(C4CCC(=O)NC4=O)C5=O)CC3)CC2)CC1 (stereo not drawn) [Example 244, 3-(5-(4-((4-(1-(4-((5-bromo-4-((5-(dimethylphosphoryl)quinoxalin-6-yl)amino)pyrimidin-2-yl)amino)-2-ethyl-5-methoxyphenyl)piperidin-4-yl)piperazin-1-yl)methyl)piperidin-1-yl)-1-oxoisoindolin-2-yl)piperidine-2,6-dione] | 88.74% | 5.6 nM | 89.3% | 13 nM
CCc1cc(Nc2ncc(Br)c(Nc3ccc4nccnc4c3P(C)(C)=O)n2)c(OC)cc1N1CCC(N2CCN(C[C@H]3C[C@H](N(C)c4ccc(C5CCC(=O)NC5=O)cc4)C3)CC2)CC1 (stereo partly drawn) [Example 245, 3-(4-(((1r,3r)-3-((4-(1-(4-((5-bromo-4-((5-(dimethylphosphoryl)quinoxalin-6-yl)amino)pyrimidin-2-yl)amino)-2-ethyl-5-methoxyphenyl)piperidin-4-yl)piperazin-1-yl)methyl)cyclobutyl)(methyl)amino)phenyl)piperidine-2,6-dione] | 87.52% | 11.9 nM | 81.4% | 30.1 nM
CCc1cc(Nc2ncc(Br)c(Nc3ccc4nccnc4c3P(C)(C)=O)n2)c(OC)cc1N1CCC(N2CCN(C(=O)C3CN(c4ccc5c(c4)CN(C4CCC(=O)NC4=O)C5=O)C3)CC2)CC1 (stereo not drawn) [Example 246, 3-(5-(3-(4-(1-(4-((5-bromo-4-((5-(dimethylphosphoryl)quinoxalin-6-yl)amino)pyrimidin-2-yl)amino)-2-ethyl-5-methoxyphenyl)piperidin-4-yl)piperazine-1-carbonyl)azetidin-1-yl)-1-oxoisoindolin-2-yl)piperidine-2,6-dione] | 93.85% | 1.51 nM | 91% | 4.47 nM
CCc1cc(Nc2ncc(Br)c(Nc3ccc4nccnc4c3P(C)(C)=O)n2)c(OC)cc1N1CCC(N2CCN(CCNc3cccc4c3CN(C3CCC(=O)NC3=O)C4=O)CC2)CC1 (stereo not drawn) [Example 248, 3-(4-((2-(4-(1-(4-((5-bromo-4-((5-(dimethylphosphoryl)quinoxalin-6-yl)amino)pyrimidin-2-yl)amino)-2-ethyl-5-methoxyphenyl)piperidin-4-yl)piperazin-1-yl)ethyl)amino)-1-oxoisoindolin-2-yl)piperidine-2,6-dione] | 89.62% | 4.41 nM | 89.4% | 9.39 nM
CCc1cc(Nc2ncc(Br)c(Nc3ccc4nccnc4c3P(C)(C)=O)n2)c(OC)cc1N1CCC(N2CCN(CCN(C)c3ccc4c(c3)C(=O)N(C3CCC(=O)NC3=O)C4)CC2)CC1 (stereo not drawn) [Example 249, 3-(6-((2-(4-(1-(4-((5-bromo-4-((5-(dimethylphosphoryl)quinoxalin-6-yl)amino)pyrimidin-2-yl)amino)-2-ethyl-5-methoxyphenyl)piperidin-4-yl)piperazin-1-yl)ethyl)(methyl)amino)-1-oxoisoindolin-2-yl)piperidine-2,6-dione] | 90.4% | 3.01 nM | 86.7% | 28.6 nM
CCc1cc(Nc2ncc(Br)c(Nc3ccc4nccnc4c3P(C)(C)=O)n2)c(OC)cc1N1CCC(N2CCN(C3CN(c4ccc(C5CCC(=O)NC5=O)cc4)C3)CC2)CC1 (stereo not drawn) [Example 250] | 75.19% | 11.1 nM | 73.8% | 24.8 nM
